Reference: the kinase profiling compilation of Christmann-Franck et al. (2016)

Tests used:
Experiment in all cases: radiometric filter-binding kinase assay, Kinase HotSpot
Conditions in all cases: compound 0.5 µM; ATP 10 µM
INSR (human) = INSR (human) (UniProt P06213)
STK4 (human) = STK4 (human) (UniProt Q13043)
RPS6KA6 KD1 KD2 (human) = RPS6KA6 KD1 KD2 (human) (UniProt Q9UK32)
BRSK2 (human) = BRSK2 (human) (UniProt Q8IWQ3)
PHKG1 (human) = PHKG1 (human) (UniProt Q16816)
TXK (human) = TXK (human) (UniProt P42681)
BLK (human) = BLK (human) (UniProt P51451)
FGFR1 (human) = FGFR1 (human) (UniProt P11362)
MAP2K1 (human) = MAP2K1 (human) (UniProt Q02750)
CSNK2A2 (human) = CSNK2A2 (human) (UniProt P19784)
LIMK1 (human) = LIMK1 (human) (UniProt P53667)
WNK3 (human) = WNK3 (human) (UniProt Q9BYP7)
MAP3K9 (human) = MAP3K9 (human) (UniProt P80192)
CDK2 CCNE1 (human) = CDK2 CCNE1 (human) (UniProt P24941+P24864)
STK3 (human) = STK3 (human) (UniProt Q13188)
DYRK3 (human) = DYRK3 (human) (UniProt O43781)
PTK2B (human) = PTK2B (human) (UniProt Q14289)
EPHA1 (human) = EPHA1 (human) (UniProt P21709)
NTRK3 (human) = NTRK3 (human) (UniProt Q16288)
RPS6KA4 KD2 (human) = RPS6KA4 KD2 (human) (UniProt O75676)
SRPK2 (human) = SRPK2 (human) (UniProt P78362)
[1] = test system: SGK1 (human), O00141 [S422D]
MAP2K2 (human) = MAP2K2 (human) (UniProt P36507)
FLT3 (human) = FLT3 (human) (UniProt P36888)
CDK1 CCNA2 (human) = CDK1 CCNA2 (human) (UniProt P06493+P20248)
MAP4K5 (human) = MAP4K5 (human) (UniProt Q9Y4K4)
CDK7 CCNH MNAT1 (human) = CDK7 CCNH MNAT1 (human) (UniProt P50613+P51948+P51946)
EPHA2 (human) = EPHA2 (human) (UniProt P29317)
MAPK10 (human) = MAPK10 (human) (UniProt P53779)
CSNK1G3 (human) = CSNK1G3 (human) (UniProt Q9Y6M4)
CSNK2A1 (human) = CSNK2A1 (human) (UniProt P68400)
PRKACA (human) = PRKACA (human) (UniProt P17612)
GSK3A (human) = GSK3A (human) (UniProt P49840)
ITK (human) = ITK (human) (UniProt Q08881)
MARK1 (human) = MARK1 (human) (UniProt Q9P0L2)
GSG2 (human) = GSG2 (human) (UniProt Q8TF76)
PRKCE (human) = PRKCE (human) (UniProt Q02156)
BMX (human) = BMX (human) (UniProt P51813)
DMPK (human) = DMPK (human) (UniProt Q09013)
NTRK2 (human) = NTRK2 (human) (UniProt Q16620)
AURKC (human) = AURKC (human) (UniProt Q9UQB9)
NEK2 (human) = NEK2 (human) (UniProt P51955)

Sequence of GSK3A (human) (P49840 whole entry, looked up): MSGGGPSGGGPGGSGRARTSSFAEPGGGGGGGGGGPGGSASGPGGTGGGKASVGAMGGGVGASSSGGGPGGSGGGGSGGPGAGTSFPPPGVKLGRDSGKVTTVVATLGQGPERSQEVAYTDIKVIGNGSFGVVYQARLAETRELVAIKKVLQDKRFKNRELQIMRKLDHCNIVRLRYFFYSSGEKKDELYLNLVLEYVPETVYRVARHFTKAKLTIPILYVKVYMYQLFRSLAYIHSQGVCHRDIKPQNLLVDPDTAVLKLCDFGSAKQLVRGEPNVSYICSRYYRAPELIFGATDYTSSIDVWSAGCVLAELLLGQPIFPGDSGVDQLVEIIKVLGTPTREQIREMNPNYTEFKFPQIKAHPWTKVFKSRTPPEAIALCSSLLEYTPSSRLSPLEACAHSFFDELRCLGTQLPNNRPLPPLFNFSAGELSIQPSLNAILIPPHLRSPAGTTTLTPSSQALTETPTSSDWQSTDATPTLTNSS
Sequence of RPS6KA6 KD1 KD2 (human) (Q9UK32 whole entry, looked up): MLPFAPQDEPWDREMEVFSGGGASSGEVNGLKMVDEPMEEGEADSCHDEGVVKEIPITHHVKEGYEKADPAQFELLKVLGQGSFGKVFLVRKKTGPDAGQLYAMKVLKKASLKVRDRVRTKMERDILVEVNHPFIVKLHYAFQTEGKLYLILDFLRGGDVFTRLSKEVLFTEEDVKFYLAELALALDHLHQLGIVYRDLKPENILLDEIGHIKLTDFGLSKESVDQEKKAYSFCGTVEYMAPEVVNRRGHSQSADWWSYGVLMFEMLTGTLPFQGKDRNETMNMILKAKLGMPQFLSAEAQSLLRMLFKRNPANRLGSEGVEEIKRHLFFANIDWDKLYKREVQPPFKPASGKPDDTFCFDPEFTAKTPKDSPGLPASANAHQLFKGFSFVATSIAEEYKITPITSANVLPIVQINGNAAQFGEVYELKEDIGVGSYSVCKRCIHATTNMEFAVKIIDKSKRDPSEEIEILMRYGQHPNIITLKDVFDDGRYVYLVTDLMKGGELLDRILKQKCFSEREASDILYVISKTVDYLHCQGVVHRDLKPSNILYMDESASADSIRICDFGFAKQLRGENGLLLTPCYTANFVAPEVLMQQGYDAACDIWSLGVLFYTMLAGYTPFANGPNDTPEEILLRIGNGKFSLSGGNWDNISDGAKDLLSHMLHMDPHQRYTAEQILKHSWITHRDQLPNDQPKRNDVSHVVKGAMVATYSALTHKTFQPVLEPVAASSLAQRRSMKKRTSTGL
Sequence of MARK1 (human) (Q9P0L2 whole entry, looked up): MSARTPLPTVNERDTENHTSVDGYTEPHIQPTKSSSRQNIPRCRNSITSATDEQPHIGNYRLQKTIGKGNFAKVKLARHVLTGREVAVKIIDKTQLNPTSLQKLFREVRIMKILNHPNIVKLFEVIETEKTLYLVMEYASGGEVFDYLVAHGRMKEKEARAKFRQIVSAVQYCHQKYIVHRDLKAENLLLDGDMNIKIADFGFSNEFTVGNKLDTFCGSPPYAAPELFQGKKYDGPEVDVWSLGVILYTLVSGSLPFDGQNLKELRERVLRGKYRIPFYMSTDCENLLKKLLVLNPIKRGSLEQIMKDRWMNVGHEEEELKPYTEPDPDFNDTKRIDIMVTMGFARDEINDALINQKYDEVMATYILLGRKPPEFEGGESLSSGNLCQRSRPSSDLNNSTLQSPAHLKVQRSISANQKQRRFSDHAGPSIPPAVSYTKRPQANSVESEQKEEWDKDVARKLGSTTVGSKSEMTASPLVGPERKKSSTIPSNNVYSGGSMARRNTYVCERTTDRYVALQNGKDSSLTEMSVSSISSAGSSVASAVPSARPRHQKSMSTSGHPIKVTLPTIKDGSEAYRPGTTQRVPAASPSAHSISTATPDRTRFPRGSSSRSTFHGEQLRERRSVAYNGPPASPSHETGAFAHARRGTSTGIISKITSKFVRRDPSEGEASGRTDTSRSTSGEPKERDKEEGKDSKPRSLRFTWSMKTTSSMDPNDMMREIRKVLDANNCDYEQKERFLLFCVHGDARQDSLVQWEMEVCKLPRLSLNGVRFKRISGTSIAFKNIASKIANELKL
Sequence of DMPK (human) (Q09013 whole entry, looked up): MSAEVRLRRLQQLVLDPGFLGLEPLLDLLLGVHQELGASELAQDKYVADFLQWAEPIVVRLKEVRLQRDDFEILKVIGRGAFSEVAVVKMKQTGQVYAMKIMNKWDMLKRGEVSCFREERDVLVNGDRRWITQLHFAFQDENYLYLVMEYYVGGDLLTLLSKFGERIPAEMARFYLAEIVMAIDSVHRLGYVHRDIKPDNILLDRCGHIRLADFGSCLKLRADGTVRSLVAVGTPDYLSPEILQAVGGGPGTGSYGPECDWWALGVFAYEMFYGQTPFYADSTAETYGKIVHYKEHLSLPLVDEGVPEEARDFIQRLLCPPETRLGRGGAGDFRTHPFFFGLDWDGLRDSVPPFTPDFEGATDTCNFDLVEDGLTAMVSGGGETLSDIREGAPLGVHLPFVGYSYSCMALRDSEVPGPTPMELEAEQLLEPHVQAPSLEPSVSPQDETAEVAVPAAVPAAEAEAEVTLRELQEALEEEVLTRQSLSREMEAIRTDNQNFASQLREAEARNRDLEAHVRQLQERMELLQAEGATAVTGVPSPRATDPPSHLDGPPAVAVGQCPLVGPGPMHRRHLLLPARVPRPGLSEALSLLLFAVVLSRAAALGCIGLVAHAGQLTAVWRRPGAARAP
Sequence of AURKC (human) (Q9UQB9 whole entry, looked up): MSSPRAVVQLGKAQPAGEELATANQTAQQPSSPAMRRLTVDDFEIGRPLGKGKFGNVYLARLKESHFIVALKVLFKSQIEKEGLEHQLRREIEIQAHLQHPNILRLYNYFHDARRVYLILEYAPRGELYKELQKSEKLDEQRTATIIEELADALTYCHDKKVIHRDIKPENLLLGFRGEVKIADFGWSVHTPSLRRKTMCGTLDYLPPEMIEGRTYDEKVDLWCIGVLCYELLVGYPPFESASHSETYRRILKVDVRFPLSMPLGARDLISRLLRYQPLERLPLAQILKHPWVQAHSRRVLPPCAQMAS
Sequence of PRKCE (human) (Q02156 whole entry, looked up): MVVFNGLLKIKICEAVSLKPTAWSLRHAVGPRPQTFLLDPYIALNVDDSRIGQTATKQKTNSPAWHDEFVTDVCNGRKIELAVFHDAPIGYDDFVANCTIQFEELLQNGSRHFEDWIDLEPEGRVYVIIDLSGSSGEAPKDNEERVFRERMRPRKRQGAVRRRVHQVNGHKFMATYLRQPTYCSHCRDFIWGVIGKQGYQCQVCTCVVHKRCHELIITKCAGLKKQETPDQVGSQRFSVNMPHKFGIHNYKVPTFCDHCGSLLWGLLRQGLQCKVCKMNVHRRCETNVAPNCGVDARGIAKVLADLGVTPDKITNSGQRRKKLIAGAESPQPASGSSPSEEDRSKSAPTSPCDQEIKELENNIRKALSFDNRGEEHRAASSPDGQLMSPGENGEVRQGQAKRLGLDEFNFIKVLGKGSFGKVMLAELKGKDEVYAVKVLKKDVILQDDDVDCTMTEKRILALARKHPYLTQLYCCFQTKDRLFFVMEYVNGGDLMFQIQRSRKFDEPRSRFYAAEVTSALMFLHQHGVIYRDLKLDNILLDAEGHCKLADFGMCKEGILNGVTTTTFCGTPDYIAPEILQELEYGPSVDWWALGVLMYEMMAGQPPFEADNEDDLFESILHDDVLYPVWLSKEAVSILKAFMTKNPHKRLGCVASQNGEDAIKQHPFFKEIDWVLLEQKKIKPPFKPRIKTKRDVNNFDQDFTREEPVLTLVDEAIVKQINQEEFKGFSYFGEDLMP
Sequence of SRPK2 (human) (P78362 whole entry, looked up): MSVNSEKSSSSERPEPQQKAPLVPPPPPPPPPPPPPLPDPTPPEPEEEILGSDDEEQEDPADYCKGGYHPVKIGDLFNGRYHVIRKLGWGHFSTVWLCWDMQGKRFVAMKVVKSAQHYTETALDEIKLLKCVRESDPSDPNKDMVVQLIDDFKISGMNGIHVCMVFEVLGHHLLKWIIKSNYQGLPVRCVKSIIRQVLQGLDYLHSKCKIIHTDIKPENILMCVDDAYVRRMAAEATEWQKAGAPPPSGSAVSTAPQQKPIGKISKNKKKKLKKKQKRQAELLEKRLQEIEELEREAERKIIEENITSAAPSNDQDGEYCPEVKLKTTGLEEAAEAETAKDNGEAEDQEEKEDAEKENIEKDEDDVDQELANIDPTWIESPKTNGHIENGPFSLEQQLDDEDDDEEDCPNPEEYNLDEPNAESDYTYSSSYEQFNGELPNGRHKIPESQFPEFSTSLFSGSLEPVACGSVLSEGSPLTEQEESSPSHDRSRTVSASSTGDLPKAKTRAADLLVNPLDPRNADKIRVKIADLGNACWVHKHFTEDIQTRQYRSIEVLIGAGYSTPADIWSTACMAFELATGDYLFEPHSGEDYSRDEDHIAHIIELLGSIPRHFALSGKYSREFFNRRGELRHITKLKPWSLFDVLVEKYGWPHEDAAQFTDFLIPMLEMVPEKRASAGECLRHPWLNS
Sequence of MAP2K2 (human) (P36507 whole entry, looked up): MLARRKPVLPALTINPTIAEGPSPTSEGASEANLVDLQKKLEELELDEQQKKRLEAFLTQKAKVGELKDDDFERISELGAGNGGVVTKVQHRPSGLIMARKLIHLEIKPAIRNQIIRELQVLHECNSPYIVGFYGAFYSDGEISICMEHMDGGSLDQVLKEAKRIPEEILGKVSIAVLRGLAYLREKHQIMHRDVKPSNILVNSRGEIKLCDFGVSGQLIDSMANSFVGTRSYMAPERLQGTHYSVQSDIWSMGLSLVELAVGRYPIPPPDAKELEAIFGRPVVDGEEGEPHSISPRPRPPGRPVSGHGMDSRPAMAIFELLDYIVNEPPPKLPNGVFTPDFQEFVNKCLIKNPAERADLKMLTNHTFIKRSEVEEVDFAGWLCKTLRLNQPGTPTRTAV

O=C1NC(=O)c2c1c1c3ccccc3[nH]c1c1[nH]c3cc(Br)ccc3c21
residual activity (INSR (human)): 86.4% | residual activity (STK4 (human)): 52% | residual activity (RPS6KA6 KD1 KD2 (human)): 32.4% | residual activity (BRSK2 (human)): 35.6% | residual activity (PHKG1 (human)): 40.7% | residual activity (TXK (human)): 90.3% | residual activity (BLK (human)): 83.9% | residual activity (FGFR1 (human)): 85.3% | residual activity (MAP2K1 (human)): 90.3% | residual activity (CSNK2A2 (human)): 93.2% | residual activity (LIMK1 (human)): 83.5% | residual activity (WNK3 (human)): 92.3% | residual activity (MAP3K9 (human)): 7.57% | residual activity (CDK2 CCNE1 (human)): 74.9% | residual activity (STK3 (human)): 55.8% | residual activity (DYRK3 (human)): 94.5% | residual activity (PTK2B (human)): 79.5% | residual activity (EPHA1 (human)): 98.1% | residual activity (NTRK3 (human)): 28.8% | residual activity (RPS6KA4 KD2 (human)): 75.9% | residual activity (SRPK2 (human)): 96.2% | residual activity [1]: 47.6% | residual activity (MAP2K2 (human)): 105% | residual activity (FLT3 (human)): 8.19% | residual activity (CDK1 CCNA2 (human)): 91.9% | residual activity (MAP4K5 (human)): 42.3% | residual activity (CDK7 CCNH MNAT1 (human)): 93.1% | residual activity (EPHA2 (human)): 99.2% | residual activity (MAPK10 (human)): 105% | residual activity (CSNK1G3 (human)): 94.6% | residual activity (CSNK2A1 (human)): 93.1% | residual activity (PRKACA (human)): 103% | residual activity (GSK3A (human)): 33.9% | residual activity (ITK (human)): 84.1% | residual activity (MARK1 (human)): 42% | residual activity (GSG2 (human)): 72.9% | residual activity (PRKCE (human)): 95.7% | residual activity (BMX (human)): 92% | residual activity (DMPK (human)): 104% | residual activity (NTRK2 (human)): 68.1% | residual activity (AURKC (human)): 51.9% | residual activity (NEK2 (human)): 92%

O=S(=O)(NCCNC/C=C/c1ccc(Br)cc1)c1cccc2cnccc12
residual activity (INSR (human)): 94.3% | residual activity (STK4 (human)): 92.6% | residual activity (RPS6KA6 KD1 KD2 (human)): 71.8% | residual activity (BRSK2 (human)): 92.4% | residual activity (PHKG1 (human)): 91.6% | residual activity (TXK (human)): 86.8% | residual activity (BLK (human)): 82.4% | residual activity (FGFR1 (human)): 87.6% | residual activity (MAP2K1 (human)): 90.5% | residual activity (CSNK2A2 (human)): 86.6% | residual activity (LIMK1 (human)): 90.6% | residual activity (WNK3 (human)): 93.1% | residual activity (MAP3K9 (human)): 99.6% | residual activity (CDK2 CCNE1 (human)): 99.3% | residual activity (STK3 (human)): 65.6% | residual activity (DYRK3 (human)): 83.5% | residual activity (PTK2B (human)): 85% | residual activity (EPHA1 (human)): 83.7% | residual activity (NTRK3 (human)): 79.6% | residual activity (RPS6KA4 KD2 (human)): 38.8% | residual activity (SRPK2 (human)): 88.3% | residual activity [1]: 93.2% | residual activity (MAP2K2 (human)): 103% | residual activity (FLT3 (human)): 89.6% | residual activity (CDK1 CCNA2 (human)): 95.3% | residual activity (MAP4K5 (human)): 30.9% | residual activity (CDK7 CCNH MNAT1 (human)): 82.8% | residual activity (EPHA2 (human)): 101% | residual activity (MAPK10 (human)): 92.6% | residual activity (CSNK1G3 (human)): 93.3% | residual activity (CSNK2A1 (human)): 97.8% | residual activity (PRKACA (human)): 10.5% | residual activity (GSK3A (human)): 94.3% | residual activity (ITK (human)): 86.8% | residual activity (MARK1 (human)): 91.2% | residual activity (GSG2 (human)): 55.1% | residual activity (PRKCE (human)): 86.4% | residual activity (BMX (human)): 102% | residual activity (DMPK (human)): 96.6% | residual activity (NTRK2 (human)): 95.1% | residual activity (AURKC (human)): 89% | residual activity (NEK2 (human)): 97.1%
